Publication PMC11714206, “Massively Parallel Screening of Toll/Interleukin‐1 Receptor (TIR)‐Derived Peptides Reveals Multiple Toll‐Like Receptors (TLRs)‐Targeting Immunomodulatory Peptides” (Advanced Science, 2024)
Values belong to the sequence of their own block, whether it stands above or below them.

Target: T1, MAL^TIR (Homo sapiens, UniProt P58753)
T1 construct: MAL (residues 79–221); 6xHis; made in house; host or cells: E. coli BL21 (DE3)
Assay: T‐Surf phage library (P8 and P3) selection against MAL^TIR, four rounds, NGS read counts
Format: binding
Details: for P3_MAL Rank (after) / P3_MAL Rank (before): P3 library; for P8_MAL Rank (after) / P8_MAL Rank (before): P8 library
Summary of the method: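 Read counts come from NGS of phage pools enriched over four selection rounds on the plate‐coated TIR domain (5 µg mL^−1). Each round: 1 h phage binding at room temperature after 0.2% BSA blocking, Tween washes, acid elution, amplification in E. coli TG1 with M13KO7 helper.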

[1] = P3_MAL: rank by count after grouping
[2] = P3_MAL: rank by count before grouping
[3] = selection against MAL, rank by count after grouping
[4] = selection against MAL, rank by count before grouping
[5] = P8_MAL: rank by count after grouping
[6] = P8_MAL: rank by count before grouping
[7] = 4R selection against MAL, rank after grouping
[8] = 4R selection against MAL, rank before grouping
[9] = selection against MAL, rank after grouping
[10] = selection against MAL, rank before grouping
[11] = selection against MAL TIR, rank by count after grouping
[12] = selection against MAL TIR, rank by count before grouping

T1 sequence (P58753 79-221): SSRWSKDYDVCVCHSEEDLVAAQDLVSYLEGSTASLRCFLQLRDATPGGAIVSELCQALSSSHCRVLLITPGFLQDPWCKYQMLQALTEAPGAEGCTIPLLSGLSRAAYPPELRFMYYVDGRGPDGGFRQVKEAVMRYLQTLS

Sequence: SEFILQIILWMNPKIV
Rank (after) [5]: 165 | Rank (before) [6]: 2449

Sequence: SEFIQKIILCMNQKIV
Rank (after) [5]: 155 | Rank (before) [6]: 2458

Sequence: SEFIQKIILWLNTKIV
P8_MAL Rank (after) [11]: 203 | P8_MAL Rank (before) [12]: 2461

Sequence: SEFIQKIILWMNLKNQ
P8_MAL Rank (after) [7]: 581 | P8_MAL Rank (before) [8]: 2466

Sequence: SEFIQKIILWMNQQIV
Rank (after) [5]: 441 | Rank (before) [6]: 2482

Sequence: SEFIQKIILWMNQTNV
Rank (after) [5]: 440 | Rank (before) [6]: 2473

Sequence: SEFLGAAEKRAGQSDD
Rank (after) [5]: 481 | Rank (before) [6]: 2445

Sequence: SFFWNKLRYHLPAPQH
P8_MAL Rank (after) [11]: 269 | P8_MAL Rank (before) [12]: 2441

Sequence: SFFWNKLRYHLQAKDH
P3_MAL Rank (after) [9]: 572 | P3_MAL Rank (before) [10]: 3010

Sequence: SFFWNKLRYILPAPNN
P3_MAL Rank (after) [7]: 596 | P3_MAL Rank (before) [8]: 3013

Sequence: SFLHFLLFSRPETASI
P8_MAL Rank (after) [7]: 642 | P8_MAL Rank (before) [8]: 1437

Sequence: SFLYTFLITLTHPTTF
P8_MAL Rank (after) [11]: 266 | P8_MAL Rank (before) [12]: 1447

Sequence: SFMLKFRTVLHHVHDV
P8_MAL Rank (after) [7]: 583 | P8_MAL Rank (before) [8]: 1451

Sequence: SFYEPQVKMVLRNTTM
P8_MAL Rank (after) [11]: 282 | P8_MAL Rank (before) [12]: 1446

Sequence: SFYERLVRLILRDTTV
Rank (after) [5]: 189 | Rank (before) [6]: 1444

Sequence: SFYWRQVSIILGDPTV
P8_MAL Rank (after) [11]: 249 | P8_MAL Rank (before) [12]: 1442

Sequence: SICREGLWRLLELSKK
P3_MAL Rank (after) [11]: 284 | P3_MAL Rank (before) [12]: 3117

Sequence: SKDYAQSAWALAEHEKR
P3_MAL Rank (after) [7]: 603 | P3_MAL Rank (before) [8]: 3225

Sequence: SLCKNLVTNLIEEFNR
Rank (after) [1]: 456 | Rank (before) [2]: 3062

Sequence: SLFCNKLRYHLPAPQH
P3_MAL Rank (after) [11]: 214 | P3_MAL Rank (before) [12]: 3027

Sequence: SLLKYKEALPQFHSWL
P3_MAL Rank (after) [7]: 586 | P3_MAL Rank (before) [8]: 2982

Sequence: SLLYDHLRCWAFVRF
P8_MAL Rank (after) [9]: 501 | P8_MAL Rank (before) [10]: 2512

Sequence: SLLYDYLRCLGIRAIL
Rank (after) [5]: 475 | Rank (before) [6]: 2493

Sequence: SLQYAHLRWLGIRAFL
P8_MAL Rank (after) [11]: 206 | P8_MAL Rank (before) [12]: 2523

Sequence: SLRKKLVRNLIEEFKR
P3_MAL Rank (after) [3]: 688 | P3_MAL Rank (before) [4]: 3100

Sequence: SLRKNLLSNLIEECKR
P3_MAL Rank (after) [9]: 495 | P3_MAL Rank (before) [10]: 3097

Sequence: SLRKNLVRNLIEEFNR
P3_MAL Rank (after) [3]: 759 | P3_MAL Rank (before) [4]: 3094

Sequence: SNLREGLWGLLELSKK
P3_MAL Rank (after) [3]: 684 | P3_MAL Rank (before) [4]: 3216

Sequence: SPQEQDGFWVRLIEAL
Rank (after) [5]: 466 | Rank (before) [6]: 2527

Sequence: SPRKNLVSNLIEEFTR
P3_MAL Rank (after) [11]: 252 | P3_MAL Rank (before) [12]: 3108

Now from value to sequence:

Rank (after) [1]: 389 | Rank (before) [2]: 2337
Sequence: RYIMPHPQELIQKNS

P3_MAL Rank (after) [3]: 725 | P3_MAL Rank (before) [4]: 2329
Sequence: RYIMPHPQVLSQKKQQ

Rank (after) [5]: 173 | Rank (before) [6]: 1007
Sequence: SAAYDDFWDRLIRMIE

P3_MAL Rank (after) [7]: 675 | P3_MAL Rank (before) [8]: 2980
Sequence: SAFVAPLSEALNQRAL

P8_MAL Rank (after) [9]: 558 | P8_MAL Rank (before) [10]: 2443
Sequence: SDFIQLINLLVKPKII

Rank (after) [5]: 171 | Rank (before) [6]: 2486
Sequence: SEFIQKISLWMNAKIV

P8_MAL Rank (after) [7]: 673 | P8_MAL Rank (before) [8]: 2481
Sequence: SEFIQKITLGMNPKIG

P8_MAL Rank (after) [3]: 689 | P8_MAL Rank (before) [4]: 2438
Sequence: SEFIQKMILWMNTKVV

P8_MAL Rank (after) [3]: 701 | P8_MAL Rank (before) [4]: 1441
Sequence: SFFDRLVSVILRDTNV

Rank (after) [1]: 437 | Rank (before) [2]: 2995
Sequence: SFFWNKLRYALTYRPAT

P3_MAL Rank (after) [9]: 559 | P3_MAL Rank (before) [10]: 2991
Sequence: SFFWSKLSYHLPAPQH

P8_MAL Rank (after) [7]: 664 | P8_MAL Rank (before) [8]: 1452
Sequence: SFLGHLYNALVQADIH

Rank (after) [5]: 413 | Rank (before) [6]: 1436
Sequence: SFLHFLLFSRPDTEYI

Rank (after) [5]: 395 | Rank (before) [6]: 1438
Sequence: SFLHFLLLSRPETAYI

P8_MAL Rank (after) [11]: 265 | P8_MAL Rank (before) [12]: 1449
Sequence: SFLYTLLSNLTHPTNF

Population (P3_MAL pool: P3 T-Surf phage library, 4th round of selection against MAL TIR, share of NGS reads): 0.0436% | Rank (after) [1]: 99 | Rank (before) [2]: 99
Sequence: SKDYAQSAWALEELTK

Rank (after) [1]: 433 | Rank (before) [2]: 3057
Sequence: SLFLSSRFKDDADLVGQ

P8_MAL Rank (after) [3]: 700 | P8_MAL Rank (before) [4]: 2491
Sequence: SLLYDHLRRLGIRAIM

Rank (after) [1]: 418 | Rank (before) [2]: 3066
Sequence: SLRNKLLSHLLEEFKS

P3_MAL Rank (after) [9]: 531 | P3_MAL Rank (before) [10]: 1326
Sequence: SNLRPKVLNYLMRTKI

P3_MAL Rank (after) [3]: 756 | P3_MAL Rank (before) [4]: 1328
Sequence: SNLRPKVMNYLMRTKT

Rank (after) [1]: 476 | Rank (before) [2]: 3209
Sequence: SSCLEGLWRLLELSKK
